Key:
MCF7 = test: Cytotoxicity against Homo sapiens (human) MCF7 cells after 48 hr by MTT assay; format: cell-based; conditions: MCF7, 48 h
Entamoeba histolytica = test: Antiamoebic activity against trophozoites of Entamoeba histolytica HM-1:IMSS after 72 hr by eosin stain-based spectrophotometric analysis; format: functional, organism-based

IC50 (Entamoeba histolytica) | Structure (SMILES) | IC50 (MCF7)
– | Cc1ncc([N+](=O)[O-])n1CCO [METRONIDAZOLE] | > 250 µM
5.46 µM | Nc1nnc(-c2ccccc2)s1 | –

Source: ChEMBL document CHEMBL3046634, “Synthesis of some 1,3,4-thiadiazole derivatives as inhibitors of Entamoeba histolytica” (Med Chem Res, 2013)
